The test system of one experiment is Staphylococcus aureus 6. Kind of experiment: antimicrobial activity, minimal inhibitory concentration (agar streak). In kind it is cell-based. To be noted: heart infusion agar, 37° C., 20 hours, overnight culture 10^8 viable cells per ml. As for the experimental part:
(§1) One loopful of an overnight culture of each test strain in Trypticase-soy broth (10^8 viable cells per ml.) was streaked on heart infusion agar (HI-agar) containing graded concentrations of antibiotics, and the minimal inhibitory concentration (MIC) was expressed in terms of μg/ml after incubation at 37° C. for 20 hours.

The subject of experiment [1] is Pseudomonas aeruginosa NCTC-10490. The experiment is described as above. In kind it is cell-based. To be noted: NCTC10490, heart infusion agar, 37° C., 20 hours, overnight culture 10^8 viable cells per ml. As for the experimental part:
as §1

A word on the MIC: it is the lowest concentration found to suppress growth. The low end stands for inhibition by little substance, the high end for a need for much substance. For `CC(C)(O)[C@@H]1C(=O)N2C(C(=O)[O-])=C(SCCN)C[C@H]12.[K+]` [potassium (5R,6R)-3-(2-aminoethylthio)-6-(1-hydroxy-1-methylethyl)-7-oxo-1-azabicyclo[3.2.0]hept-2-ene-2-carboxylate], the MIC was 1.56 µg/mL with Staphylococcus aureus 6 and 12.5 µg/mL in experiment [1].

The record behind these values is US4539152A, “4-Substituted-2-oxoazetidine compounds” (Fujisawa Pharmaceutical Co., Ltd., priority 1980, dated 1985).
